According to US6440935B1, “Inhibition of eucaryotic pathogens and neoplasms and stimulation of fibroblasts and lymphocytes with lytic peptides” (priority 1987, dated 2002):
Where “and” joins values, the source holds several entries; their conditions need not be identical. Equal values may be shown once. Read-outs that look alike come from different tables or passages of the source. Residues, ends and D or L forms follow the SMILES beside them.

Key:
[1] = EL-4 cell viability by trypan blue exclusion; assay type: cell-based; settings: one hour, 95% at 0 μM
Method: (§1) EL-4 lymphoma cells were suspended in RPMI 1640 at 5,000,000/ml with 500,000 cells per well. Various concentrations of cecropin SB-37 and Shiva 1 were added and the wells incubated at 37° C. in a 5% CO2 atmosphere for one hour. Viability was determined by microscopic observation for trypan blue exclusion.

[2] = EL-4 cytotoxicity by chromium release; assay type: cell-based; settings: for cytotoxicity at 100 µM: read-out: Percent Cytotoxicity
Method: (§2) The EL-4 cells were then incubated for 30 minutes in the presence of various peptides at different concentrations. Cytotoxicity was taken as a percentage of chromium released (measured in the culture supernatant) relative to the chromium released by EL-4 cells lysed by detergent.
(§3) Similar chromium release data were obtained using the same procedure with a 100 μM concentration of peptide, but with EL-4 cell concentrations of 2×10^6, 10^6, and 5×10^5 cells in 0.5 ml medium.
(§4) The chromium release data was also obtained by using the supernatant from unlabeled EL-4 cells cultured for 30 minutes in the presence of 100 μM peptide as medium for […] EL-4 cultured as described above. The percent cytotoxicity calculated as described above was 20.16 for cecropin SB-37, 19.73 for *cecropin SB-37, 41.96 for Shiva 1, and 106.67 for melittin.

EL-4 cells = assay: EL-4 cytotoxicity by chromium release; assay type: cell-based; settings: 30 minutes, 10^6 EL-4 cells
Method: as §2, §3, §4

[3] = Viability by trypan blue exclusion, KG-1 cells; assay type: cell-based, human; settings: 100 μM
Method: as §1
(§5) The procedure of Example 5 was repeated with 50 and 200 μM cecropin SB-37 using SP2 mouse lymphoma cells, KG-1 human leukemia cells, Daudi human Burkitt's lymphoma cells, non-adherent normal human lymphocytes and adherent 3T3 […] fibroblasts. Viability was determined by microscopic observation for trypan blue exclusion.
(§6) This procedure was repeated with 100 μM cecropin SB-37 using non-adherent normal human lymphocytes, Daudi human Burkitt's lymphoma cells, KG-1 human leukemia cells, U937 human monocytic leukemia cells, and SP2 murine myeloma cells, and determining viability by the trypan blue exclusion method at 15, 30 and 60 minutes following addition of the peptide.

[4] = test system: KG-1 human leukemia cells; assay: Viability by trypan blue exclusion, KG-1 cells; assay type: cell-based
Method: as §1, §5, §6

[5] = Viability by trypan blue exclusion, Daudi cells; assay type: cell-based, human; settings: 100 μM
Method: as §1, §5, §6

[6] = test system: Daudi human Burkitt's lymphoma cells; assay: Viability by trypan blue exclusion, Daudi cells; assay type: cell-based
Method: as §1, §5, §6

[7] = Viability by trypan blue exclusion, normal lymphocytes; assay type: cell-based, human; settings: 100 μM
Method: as §1, §5, §6

[8] = test system: non-adherent normal human lymphocytes; assay: as above; assay type: cell-based
Method: as §1, §5, §6

[9] = test system: adherent 3T3 human fibroblasts; assay: Viability by trypan blue exclusion, 3T3 fibroblasts; assay type: cell-based
[10] = Viability by trypan blue exclusion, U937 cells; assay type: cell-based, human
Method: as §1, §6

[11] = In vivo screening on mice; set-up: species or system BALB/C mice; settings: for WBC Count: 110 mg/kg per day i.m. for 6 days, Mouse 1, 2, 3
Method: Nine BALB/C mice, 4 to 5 weeks of age, maintained on commercial rodent ration fed ad libidum and in general good health were each inoculated with 1.76 mg/day of cecropin SB-37 in PBS intramuscularly for 4 consecutive days. No other change was made in diet or conditions. […] At the end of the fourth day, three were sacrificed and examined. After 30 days, three were given an additional 1.76 mg of cecropin SB-37 each.
The remaining mice were all sacrificed 7 days after the last inoculation.
Following the above procedure, three BALB/C mice were given 110 mg/kg of body weight per day of cecropin SB-37 injected intramuscularly in balanced salt solution for 6 days. Ten days after the last inoculation, the mice were again injected intramuscularly with 110 mg/kg of body weight with cecropin SB-37. […] All three mice were sacrificed 7 days after the final inoculation and tissues were examined.

[12] = test system: Pseudomonas syringae pv. tabaci; assay: Plant pathogen LD50 in cecropin SB-37/lysozyme; assay type: cell-based; settings: incubation at 30° C.
[13] = test system: Xanthomonas campestris pv. campestris; assay: Plant pathogen LD50 in cecropin SB-37/lysozyme; assay type: cell-based; settings: incubation at 30° C.
[14] = test system: Plasmodium falciparum in human red blood cells; settings: 24-hour period, relative to untreated infected red blood cells
[15] = S. intermedius 19930 viability in lytic peptide/lysozyme; settings: Viability (%), lysozyme at ten times

With CC[C@H](C)[C@H](NC(=O)CNC(=O)[C@H](CC(N)=O)NC(=O)[C@H](CCCNC(=N)N)NC(=O)[C@@H](NC(=O)[C@H](CC(N)=O)NC(=O)[C@H](CCCNC(=N)N)NC(=O)CNC(=O)[C@H](CCSC)NC(=O)[C@H](CCCCN)NC(=O)[C@H](CCC(=O)O)NC(=O)[C@@H](NC(=O)[C@H](CCCCN)NC(=O)[C@H](CCCCN)NC(=O)[C@H](Cc1ccccc1)NC(=O)[C@@H](NC(=O)[C@H](CCCCN)NC(=O)[C@H](Cc1c[nH]c2ccccc12)NC(=O)[C@H](CCCCN)NC(=O)[C@@H]1CCCN1C(=O)[C@@H](N)CCSC)C(C)C)[C@@H](C)CC)[C@@H](C)CC)C(=O)N[C@H](C(=O)N[C@@H](CCCCN)C(=O)N[C@@H](C)C(=O)NCC(=O)N1CCC[C@H]1C(=O)N[C@@H](C)C(=O)N[C@H](C(=O)N[C@@H](C)C(=O)N[C@H](C(=O)N[C@@H](CC(C)C)C(=O)NCC(=O)N[C@@H](CCC(=O)O)C(=O)N[C@@H](C)C(=O)N[C@@H](CCCCN)C(=O)N[C@@H](C)C(=O)N[C@@H](CC(C)C)C(=O)NCC(N)=O)C(C)C)[C@@H](C)CC)C(C)C [Cecropin SB-37] (H-MPKWKVFKKIEKMGRNIRNGIVKAGPAIAVLGEAKALG-NH2) the viability ([1]; 10 μM) was 90%, the viability ([1]; 25 μM) was 90% and the viability ([1]; 50 μM) was 75%. It also gave a viability ([1]; 100 μM) of 20%, a cytotoxicity at 100 µM ([2]; 2 × 10^6 cells per 0.5 ml) of 93.8% and a cytotoxicity at 100 µM ([2]; 5 × 10^5 cells per 0.5 ml) of 99.6%. For the same compound, the cytotoxicity at 100 µM ([2]; 10^6 cells per 0.5 ml) was 89.2%, the cytotoxicity ([2]; supernatant from unlabeled EL-4 cells cultured 30 minutes with 100 μM peptide used as medium for labeled EL-4, read-out: percent cytotoxicity) was 20.2% and the “Percent Cytotoxicity (chromium release vs detergent-lysed cells)” value (“Percent Cytotoxicity” for short) (EL-4 cells; 10 μM) was 0.0%. For the same compound, the “Percent Cytotoxicity” value (EL-4 cells; 25 μM) was 4.49%, the “Percent Cytotoxicity” value (EL-4 cells; 50 μM) was 6.63% and the “Percent Cytotoxicity” value (EL-4 cells; 100 μM) was 36.42%. It also gave a viability at 100 µM ([3]; 15 min.) of 50%, a viability at 100 µM ([3]; 30 min.) of 75% and a viability at 100 µM ([3]; 60 min.) of 50%. The “Survival (percent)” value ([4]; 50 μM) was 95%, the “Survival (percent)” value ([4]; 100 μM) was 0% and the viability at 100 µM ([5]; 15 min.) was 70%. The viability at 100 µM ([5]; 30 min.) was 70%, the viability at 100 µM ([5]; 60 min.) was 65% and the “Survival (percent)” value ([6]; 50 μM) was 85%. For the same compound, the “Survival (percent)” value ([6]; 100 μM) was 0%, the viability at 100 µM ([7]; 15 min.) was 75% and the viability at 100 µM ([7]; 30 min.) was 80%. The viability at 100 µM ([7]; 60 min.) was 85%, the “Survival (percent)” value ([8]; 50 μM) was 100% and the “Survival (percent)” value ([8]; 100 μM) was 30%. The “Survival (percent)” value ([9]; 50 μM) was 80%, the “Survival (percent)” value ([9]; 100 μM) was 80% and the viability at 100 µM ([10]; 15 min.) was 35%. For the same compound, the viability at 100 µM ([10]; 30 min.) was 25%, the viability at 100 µM ([10]; 60 min.) was 15% and the adverse reactions ([11]; 1.76 mg/day intramuscularly, 4 consecutive days, observed twice daily) was “no adverse reactions were noted”. The “antibody to cecropin SB-37” value ([11]; 1.76 mg/day regimen) was “None of these mice produced detectable levels of antibody”, the “examination of organs and tissues” value ([11]; 1.76 mg/day regimen, sacrificed 7 days after the last inoculation) was “no gross pathological changes were present” and the “WBC Count” value ([11]; Day 1) was 13 10^3/ml and 9 10^3/ml. For the same compound, the “WBC Count” value ([11]; Day 3) was 14 10^3/ml and 9 10^3/ml and 10 10^3/ml, the “WBC Count” value ([11]; Day 5) was 15 10^3/ml and 19 10^3/ml and the “WBC Count” value ([11]; Day 8) was 21 10^3/ml. The “WBC Count” value ([11]; Day 11) was 23 10^3/ml and 20 10^3/ml, the adverse effects ([11]; 110 mg/kg per day intramuscularly for 6 days, again ten days later) was “no adverse effects” and the “cecropin SB-37 antibodies” value ([11]; 110 mg/kg regimen) was “No cecropin SB-37 antibodies were detected”. The examination of tissues ([11]; 110 mg/kg regimen, sacrificed 7 days after the final inoculation) was “enlarged spleens but were otherwise unremarkable”, the adverse reactions ([11]; additional 1.76 mg after 30 days) was “No adverse reactions were noted” and the LD50 [12] was 5.20 µM. The LD50 [13] was 0.57 µM, the viability was 0% and the viability at 0.01 µM was 100%. The viability at 0.1 µM was 79.4%, the viability at 1 µM was 48.8% and the viability at 5 µM was 38.5%. The viability at 7.5 µM was 0.7%, the “LD50 (concentration for 50% reduction in 3H-hypoxanthine uptake)” value [14] was “about 22.5 μM” and the LD50 (Pseudomonas solanacearum) was 64.0 µM. It also gave a viability at 0.01 µM ([15]; peptide concentration 0.01 μM) of 100%, a viability at 0.1 µM ([15]; peptide concentration 0.1 μM) of 94.7% and a viability at 0.5 µM ([15]; peptide concentration 0.5 μM) of 69.4%. It also gave a viability at 1 µM ([15]; peptide concentration 1.0 μM) of 42.5%, a viability at 5 µM ([15]; peptide concentration 5.0 μM) of 36.1% and a viability ([15]; peptide concentration 10. μM) of 5.6%. The viability ([15]; peptide concentration 50. μM) was 0%.
